Read-outs that look alike come from different tables or passages of the source.
How the values were obtained:
[1] = biological target: T1, orexin 2 receptors (Homo sapiens, UniProt O43614); test: measurement of intracellular calcium (FLIPR), antagonist test against orexin B; assay type: cell-based; conditions: 30 minutes preincubation before addition of 0.25 nM orexin B, Fluo-4 AM, read-out: Measurement of [Ca^2+]i IC50 OX 2 - FLIPR
T1 sequence (O43614 1-444): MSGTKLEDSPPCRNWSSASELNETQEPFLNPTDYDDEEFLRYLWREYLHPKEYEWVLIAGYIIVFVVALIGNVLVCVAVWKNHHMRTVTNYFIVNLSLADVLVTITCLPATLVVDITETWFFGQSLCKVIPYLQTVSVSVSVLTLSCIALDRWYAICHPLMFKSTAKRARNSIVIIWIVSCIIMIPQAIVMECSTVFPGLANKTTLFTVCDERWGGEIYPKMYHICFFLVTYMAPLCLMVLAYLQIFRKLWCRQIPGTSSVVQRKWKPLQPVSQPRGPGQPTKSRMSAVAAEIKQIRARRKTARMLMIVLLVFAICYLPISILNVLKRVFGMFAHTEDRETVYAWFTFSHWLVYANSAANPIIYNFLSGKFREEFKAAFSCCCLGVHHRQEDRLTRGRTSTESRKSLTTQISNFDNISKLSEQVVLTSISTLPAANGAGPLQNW
Description: The agonist or antagonist nature of the compounds is determined in vitro in a test of measurement of intracellular calcium (FLIPR) on a cell preparation expressing the orexin 2 receptors, according to the general technique described in Sullivan et al., Methods Mol. Biol., 1999, vol. 114, 125-133, using 1 μM of Fluo-4 AM as fluorescent calcium indicator.

[2] = biological target: T1, orexin 2 receptors; test: in vitro binding: displacement of radio-iodinated orexin A on CHO cell membranes; set-up: expressed in transfected cells; host or cells: CHO cells (membranes); conditions: human orexin 2 receptors in CHO cell membranes, 100 pM ligand, 30 minutes at 25° C., read-out: IC50 OX 2
Description: (§1) They were in particular tested as regards their effects. […] This method consists in studying the displacement of radio-iodinated orexin A bound to human orexin 2 receptors expressed in CHO cells. The test is performed on membranes in a Hepes 50 mM, MgCl2 1 mM, CaCl2 25 mM, NaN3 0.025%, bovine serum albumin (BSA) 1% incubation buffer and 100 pM of ligand, for 30 minutes at 25° C. The reaction is quenched by filtration and washing on a Whatman GF/C filter. The non-specific binding is measured in the presence of 10^−6M of human orexin B. The IC50 values (concentration that inhibits 50% of the binding of the radio-iodinated orexin A to its receptors) are low, less than 300 nM, in particular less than 100 nM and more particularly less than 30 nM.

[3] = biological target: T2, human orexin 1 receptors (Homo sapiens, UniProt O43613); test: in vitro binding: displacement of radio-iodinated orexin A on CHO cell membrane preparation; conditions: membrane preparation of CHO cells expressing human orexin 1 receptors, read-out: IC50 OX 1
T2 construct: expressed in transfected cells; host or cells: CHO cells (membrane preparation)
T2 sequence (O43613 1-425): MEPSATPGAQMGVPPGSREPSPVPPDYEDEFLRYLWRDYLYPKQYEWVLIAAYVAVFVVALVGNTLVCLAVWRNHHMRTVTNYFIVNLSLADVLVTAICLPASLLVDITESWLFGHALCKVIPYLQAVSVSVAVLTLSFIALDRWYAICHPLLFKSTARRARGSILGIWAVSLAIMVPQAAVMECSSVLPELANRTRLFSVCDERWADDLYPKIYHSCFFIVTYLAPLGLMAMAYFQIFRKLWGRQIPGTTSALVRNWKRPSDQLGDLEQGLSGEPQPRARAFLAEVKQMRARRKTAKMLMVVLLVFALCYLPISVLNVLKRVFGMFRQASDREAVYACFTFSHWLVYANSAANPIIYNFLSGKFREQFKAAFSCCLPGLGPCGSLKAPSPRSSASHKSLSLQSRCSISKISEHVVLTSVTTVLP
Description: as §1, with “nM. The affinity of the compounds according to the invention for the orexin 1 receptors was also studied in a test of in vitro binding according to the same technique using radio-iodinated orexin A as ligand in a membrane preparation of CHO cells expressing the human orexin 1 receptors. The compounds according to the invention show little or no affinity for the orexin 1 receptors.” for “nM.”

Row | IC50 [1] | IC50 [2] | IC50 [3] | melting point | IC50 ([3]; unit μM) | Compound
1 | 5 nM | 13 nM | 0.446 µM |  |  | CCOC(=O)CN(c1ccc(Cl)cc1C(O)c1ccccc1Cl)S(=O)(=O)c1ccc(OC)c(OC)c1 (centres unmarked) [Compound 1, Ethyl N-{4-chloro-2-[(2-chlorophenyl)(hydroxy)methyl]phenyl}-N-[(3,4-dimethoxyphenyl)sulfonyl]glycinate]
2 |  |  |  | 94.8 °C |  | COc1ccc(S(=O)(=O)N(Cc2nnn(C)n2)c2ccc(Cl)cc2C(O)c2ccccc2Cl)cc1OC (centres unmarked) [Compound 14, N-{4-chloro-2-[(2-chlorophenyl)(hydroxy)methyl]phenyl}-3,4-dimethoxy-N-[(2-methyl-2H-tetrazol-5-yl)methyl]benzenesulfonamide]
3 |  |  |  | 158.5 °C |  | COC(=O)CN(c1ccc(Cl)cc1C(O)c1ccccc1Cl)S(=O)(=O)c1ccc(OC)c(OC)c1 (centres unmarked) [Compound 21, Methyl N-{4-chloro-2-[(2-chlorophenyl)(hydroxy)methyl]phenyl}-N-[(3,4-dimethoxyphenyl)sulfonyl]glycinate]
4 | 19 nM | 62 nM | 1.5 µM |  |  | Cc1ccc(S(=O)(=O)N(CC(N)=O)c2ccc(Cl)cc2C(O)c2ccccc2Cl)cc1C (centres unmarked) [Compound 28, N^2-{4-chloro-2-[(2-chlorophenyl)(hydroxy)methyl]phenyl}-N^2-[(3,4-dimethylphenyl)sulfonyl]glycinamide]
5 | 26 nM | 82 nM | 0.966 µM |  |  | COc1cccc(S(=O)(=O)N(CC(N)=O)c2ccc(Cl)cc2C(O)c2ccccc2Cl)c1 (centres unmarked) [Compound 30]
6 | 54 nM | 85 nM |  |  | > 10 µM | COc1ccc(S(=O)(=O)N(CC(N)=O)c2ccc(Cl)cc2C(O)c2cccc(Cl)c2)cc1OC (centres unmarked) [Compound 44, N^2-{4-chloro-2-[(3-chlorophenyl)(hydroxy)methyl]phenyl}-N^2-[(3,4-dimethoxyphenyl)sulfonyl]glycinamide]
7 |  |  |  | 192.5 °C |  | COc1ccc(S(=O)(=O)N(CC(N)=O)c2ccc(Cl)cc2N(C)c2ccccc2)cc1OC [Compound 92, N^2-{4-chloro-2-[methyl(phenyl)amino]phenyl}-N^2-[(3,4-dimethoxyphenyl)sulfonyl]glycinamide]
8 | 11 nM | 20 nM | 0.899 µM |  |  | COc1ccc(S(=O)(=O)N(Cc2nccn2C)c2ccc(Cl)cc2Cc2ccccc2Cl)cc1OC [Compound 107, N-[4-chloro-2-(2-chlorobenzyl)phenyl]-3,4-dimethoxy-N-[(1-methyl-1H-imidazol-2-yl)methyl]benzenesulfonamide]
9 | 65 nM | 50 nM |  |  | > 10 µM | CNC(=O)CN(c1ccc(Cl)cc1N(C)c1ccccc1)S(=O)(=O)c1ccc(OC)c(OC)c1 [Compound 124, N^2-{4-chloro-2-[methyl(phenyl)amino]phenyl}-N^2-[(3,4-dimethoxyphenyl)sulfonyl]-N^1-methylglycinamide]
10 | 10 nM | 19 nM |  |  | > 10 µM | CNC(=O)CN(c1ccc(Cl)cc1C(O)c1ccccc1)S(=O)(=O)c1ccc(OC)c(OC)c1 (centres unmarked) [Compound 137, N^2-{4-chloro-2-[hydroxy(phenyl)methyl]phenyl}-N^2-[(3,4-dimethoxyphenyl)sulfonyl]-N^1-methylglycinamide]
11 | 11 nM | 8 nM | 4.76 µM | 184.6 °C |  | COc1ccc(N(CC(N)=O)S(=O)(=O)c2ccc(OC)c(OC)c2)c(Cc2ccccc2Cl)c1 [Compound 138, N^2-[2-(2-Chlorobenzyl)-4-methoxyphenyl]-N^2-[(3,4-dimethoxyphenyl)sulfonyl]glycinamide]
12 |  |  |  | 180.8 °C |  | COc1ccc(S(=O)(=O)N(Cc2nnnn2C)c2ccc(Cl)cc2Cc2c(F)cccc2F)cc1OC [Compound 152, N-[4-chloro-2-(2,6-difluorobenzyl)phenyl]-3,4-dimethoxy-N-[(1-methyl-1H-tetrazol-5-yl)methyl]benzenesulfonamide]
13 |  |  |  | 86.4 °C |  | COc1ccc(S(=O)(=O)N(CC(N)=O)c2cc(Cl)ccc2Cc2ccccc2Cl)cc1OC [Compound 179, N^2-[5-Chloro-2-(2-chlorobenzyl)phenyl]-N^2-[(3,4-dimethoxyphenyl)sulfonyl]glycinamide]
14 |  |  |  | 151 °C |  | CNC(=O)CN(c1ccc(Cl)cc1C(C)c1ccccc1Cl)S(=O)(=O)c1ccc(OC)c(OC)c1 (centres unmarked) [Compound 187, N^2-{4-chloro-2-[1-(2-chlorophenyl)ethyl]phenyl}-N^2-[(3,4-dimethoxyphenyl)sulfonyl]-N^1-methylglycinamide]
15 | 7 nM | 9 nM | 1.87 µM |  |  | COc1ccc(S(=O)(=O)N(CC(N)=O)c2cc(N(C)C)ccc2Cc2c(F)cccc2F)cc1OC [Compound 202, N^2-[2-(2,6-difluorobenzyl)-5-(dimethylamino)phenyl]-N^2-[(3,4-dimethoxyphenyl)sulfonyl]glycinamide]
16 |  |  |  | 86.8 °C |  | COc1ccc(S(=O)(=O)N(CC(N)=O)c2c(OC)cccc2-c2ccccc2)cc1OC [Compound 312, N˜2˜-[(3,4-dimethoxyphenyl)sulfonyl]-N˜2˜-(3-methoxybiphenyl-2-yl)glycinamide]
